Experimental data: patent US12605396B2, “Methods of treating mastitis with an orthosomycin antimicrobial compound” (Intervet Inc., priority 2020, dated 2026)
Values after ≈ are worked out from the molar mass of the structure shown. Values joined by “and” are separate entries in the source; they are usually repeats but may differ in a detail not shown here. Identical values can stand only once. “Also recorded” adds a separate entry of the source. Like-named read-outs stand apart in the source and are kept apart here.

Legend:
S. aureus [1] = test: MIC in bacteriological broth (CLSI VET01-A4); format: cell-based, Staphylococcus aureus; conditions: for S. aureus MIC, CAMHB: bacteriological broth (CAMHB), individual S. aureus isolates; for Activity against S. aureus isolates in bacteriological broth: different S. aureus isolates
Method: (§1) Minimal inhibitory concentrations (MIC) were determined in bacteriological broth according to Clinical and Laboratory Standard Institute (CLSI) guideline VET01-A4 [1]. The MIC results were interpreted according to the CLSI document VET01-S3 [2].

S. aureus [2] = test: MIC in full cream UHT milk with alamar Blue; format: cell-based, Staphylococcus aureus; conditions: for S. aureus MIC, milk: individual S. aureus isolates, in µg/mL; for Distribution of MIC values: isolates with MIC 0.125 μg/ml / Distribution of MIC values: isolates with MIC 0.25 μg/ml / Distribution of MIC values: isolates with MIC 0.5 μg/ml / Distribution of MIC values: isolates with MIC 1 μg/ml / Distribution of MIC values: isolates with MIC 2 μg/ml / Distribution of MIC values: isolates with MIC 4 μg/ml / Distribution of MIC values: isolates with MIC 8 μg/ml / Distribution of MIC values: isolates with MIC 16 μg/ml / Distribution of MIC values: isolates with MIC 32 μg/ml / Distribution of MIC values: isolates with MIC 64 μg/ml / Distribution of MIC values: isolates with MIC >64 μg/ml / Distribution of MIC values: isolates with MIC ≤0.063 μg/ml / MIC90: S. aureus (n = 20)
Method: (§2) For MIC determination in milk, the in vitro activity was determined by measuring the minimum inhibitory concentrations (MIC) according to CLSI document VET01-A4 [1] using full cream UHT milk as test medium. About 2 h before the end of the incubation 10 μL of alamar Blue® was added to each well of the microdilution trays, resulting in a final concentration of 10% of alamar Blue®. Blue color of the medium indicated no living cells (no bacterial growth) red/pink to white color of the medium indicated living cells (bacterial growth). The MIC results were interpreted according to the CLSI document VET01-S3 [2].

coa-neg Staph. = test: MIC in bacteriological broth (CLSI VET01-A4); format: cell-based, coagulase-negative staphylococci
Method: as §1

Strep. agalactiae = test: MIC in bacteriological broth (CLSI VET01-A4); format: cell-based, Streptococcus agalactiae
Method: as §1

Strep. dysgalactiae = test: MIC in bacteriological broth (CLSI VET01-A4); format: cell-based, Streptococcus dysgalactiae
Method: as §1

S. uberis = test: MIC in bacteriological broth (CLSI VET01-A4); format: cell-based, Streptococcus uberis
Method: as §1

Truep. pyogenes = test: MIC in bacteriological broth (CLSI VET01-A4); format: cell-based, Trueperella pyogenes
Method: as §1

[3] = tested on: mastitis-causing pathogens; test: Antimicrobial activity against mastitis-causing pathogens (overall statement); format: cell-based; conditions: broth-dilution assay and milk
Method: as §1, §2

[4] = broth, of 15 Staph. aureus isolates
[5] = broth, of 15 coa-neg Staph. isolates
[6] = broth, of 15 Strep. agalactiae isolates
[7] = broth, of 15 Strep. dysgalactiae isolates
[8] = broth, of 15 Strep. uberis isolates

## CC[C@@H](C(=O)[C@@H](C)[C@@H](O)[C@H](C)CCc1ccc(C)c(O)c1C(=O)O)[C@H]1O[C@](CC)([C@H]2CC[C@](O)(CC)[C@H](C)O2)C[C@@H]1C [Lasalocid, lasalocid]
S. aureus [1]
  S. aureus MIC, CAMHB: 0.25 (3×) and 1 (4×) and 0.5
S. aureus [1]; bacteriological broth
  Activity against S. aureus isolates in bacteriological broth: active
S. aureus [2]
  Activity in milk: no activity; also recorded: lost any activity
  S. aureus MIC, milk: >32

## CC[C@@]1([C@@H]2O[C@@H]([C@H]3O[C@@](O)(CO)[C@H](C)C[C@@H]3C)C[C@@H]2C)CC[C@H]([C@]2(C)CC[C@]3(C[C@H](O)[C@@H](C)[C@@H]([C@@H](C)[C@@H](OC)[C@H](C)C(=O)O)O3)O2)O1 [Monensin, monensin]
S. aureus [1]
  S. aureus MIC, CAMHB: 0.25 (2×) and 2 (6×)
S. aureus [1]; bacteriological broth
  Activity against S. aureus isolates in bacteriological broth: active
S. aureus [2]
  Activity in milk: no activity; also recorded: lost any activity
  S. aureus MIC, milk: >32

## CC1(C)S[C@@H]2[C@H](NC(=O)Cc3ccccc3)C(=O)N2[C@H]1C(=O)O [Penicillin G, penicillin G]
S. aureus [2]
  Distribution of MIC values: isolates with MIC 0.125 μg/ml: 0
  Distribution of MIC values: isolates with MIC 0.25 μg/ml: 0
  Distribution of MIC values: isolates with MIC 0.5 μg/ml: 0
  Distribution of MIC values: isolates with MIC 1 μg/ml: 1
  Distribution of MIC values: isolates with MIC 2 μg/ml: 0
  Distribution of MIC values: isolates with MIC 4 μg/ml: 0
  Distribution of MIC values: isolates with MIC 8 μg/ml: 2
  Distribution of MIC values: isolates with MIC 16 μg/ml: 1
  Distribution of MIC values: isolates with MIC 32 μg/ml: 1
  Distribution of MIC values: isolates with MIC 64 μg/ml: 0
  Distribution of MIC values: isolates with MIC >64 μg/ml: 1
  Distribution of MIC values: isolates with MIC ≤0.063 μg/ml: 14
  MIC90: 16 µg/mL (≈ 47.8 µM)

## CC[C@@H](C(=O)[C@@H](C)[C@@H](O)[C@H](C)[C@@H]1O[C@@H]([C@@H](CC)C(=O)O)CC[C@@H]1C)[C@H]1O[C@]2(C=C[C@@H](O)[C@]3(CC[C@@](C)([C@H]4CC[C@](O)(CC)[C@H](C)O4)O3)O2)[C@H](C)C[C@@H]1C [Salinomycin, salinomycin]
S. aureus [1]
  S. aureus MIC, CAMHB: 0.25 (2×) and 1 and 0.5 (5×)
S. aureus [1]; bacteriological broth
  Activity against S. aureus isolates in bacteriological broth: active
S. aureus [2]
  Activity in milk: no activity; also recorded: lost any activity
  S. aureus MIC, milk: >32

## COC[C@H]1O[C@@H](O[C@@H]2OC[C@@H]3O[C@@]4(OC[C@@H](OC(=O)c5c(C)cc(O)cc5O)[C@@H]5OCO[C@H]54)O[C@H]3[C@H]2O)[C@@H](OC)[C@@H](O)C1O[C@@H]1O[C@H](C)[C@H](OC)[C@H](OC2O[C@H](C)[C@H]3O[C@]4(C[C@@H](O)[C@H](O[C@H]5C[C@@H](O[C@H]6C[C@](C)([N+](=O)[O-])[C@@H](OC)[C@H](C)O6)[C@H](OC(=O)c6c(C)c(Cl)c(O)c(Cl)c6OC)[C@@H](C)O5)[C@@H](C)O4)O[C@]3(C)[C@@H]2O)[C@H]1O (stereo partly shown) [evernimicin]
S. aureus [1]; Staphylococcus aureus, bacteriological broth, 15 Staph. aureus isolates tested, read-out: MIC50
  MIC50: 0.5 µg/mL (≈ 0.306 µM)
S. aureus [1]; Staphylococcus aureus, bacteriological broth, 15 Staph. aureus isolates tested, read-out: MIC90
  MIC90: 0.5 µg/mL (≈ 0.306 µM)
S. aureus [1]; Staphylococcus aureus, bacteriological broth, 15 Staph. aureus isolates tested, read-out: Maximum MIC
  MIC: 0.5 µg/mL (≈ 0.306 µM)
S. aureus [1]; Staphylococcus aureus, bacteriological broth, 15 Staph. aureus isolates tested, read-out: Minimum MIC
  MIC: 0.125 µg/mL (≈ 0.0766 µM)
S. aureus [1]; [4]
  Number of isolates with MIC 0.125 μg/mL: 1
  Number of isolates with MIC 0.25 μg/mL: 2
  Number of isolates with MIC 0.5 μg/mL: 12
coa-neg Staph.; bacteriological broth, 15 coa-neg Staph. isolates tested, read-out: MIC50
  MIC50: 0.5 µg/mL (≈ 0.306 µM)
coa-neg Staph.; bacteriological broth, 15 coa-neg Staph. isolates tested, read-out: MIC90
  MIC90: 1 µg/mL (≈ 0.613 µM)
coa-neg Staph.; bacteriological broth, 15 coa-neg Staph. isolates tested, read-out: Maximum MIC
  MIC: 8 µg/mL (≈ 4.9 µM)
coa-neg Staph.; bacteriological broth, 15 coa-neg Staph. isolates tested, read-out: Minimum MIC
  MIC: 0.25 µg/mL (≈ 0.153 µM)
coa-neg Staph.; [5]
  Number of isolates with MIC 0.25 μg/mL: 6
  Number of isolates with MIC 0.5 μg/mL: 6
  Number of isolates with MIC 1 μg/mL: 2
  Number of isolates with MIC 8 μg/mL: 1
Strep. agalactiae; Streptococcus agalactiae, bacteriological broth, 15 Strep. agalactiae isolates tested, read-out: MIC50
  MIC50: 0.125 µg/mL (≈ 0.0766 µM)
Strep. agalactiae; Streptococcus agalactiae, bacteriological broth, 15 Strep. agalactiae isolates tested, read-out: MIC90
  MIC90: 0.25 µg/mL (≈ 0.153 µM)
Strep. agalactiae; Streptococcus agalactiae, bacteriological broth, 15 Strep. agalactiae isolates tested, read-out: Maximum MIC
  MIC: 0.25 µg/mL (≈ 0.153 µM)
Strep. agalactiae; Streptococcus agalactiae, bacteriological broth, 15 Strep. agalactiae isolates tested, read-out: Minimum MIC
  MIC: 0.125 µg/mL (≈ 0.0766 µM)
Strep. agalactiae; [6]
  Number of isolates with MIC 0.125 μg/mL: 12
  Number of isolates with MIC 0.25 μg/mL: 3
Strep. dysgalactiae; Streptococcus dysgalactiae, bacteriological broth, 15 Strep. dysgalactiae isolates tested, read-out: MIC50
  MIC50: 0.125 µg/mL (≈ 0.0766 µM)
Strep. dysgalactiae; Streptococcus dysgalactiae, bacteriological broth, 15 Strep. dysgalactiae isolates tested, read-out: MIC90
  MIC90: 0.25 µg/mL (≈ 0.153 µM)
Strep. dysgalactiae; Streptococcus dysgalactiae, bacteriological broth, 15 Strep. dysgalactiae isolates tested, read-out: Maximum MIC
  MIC: 0.25 µg/mL (≈ 0.153 µM)
Strep. dysgalactiae; Streptococcus dysgalactiae, bacteriological broth, 15 Strep. dysgalactiae isolates tested, read-out: Minimum MIC
  MIC: 0.125 µg/mL (≈ 0.0766 µM)
Strep. dysgalactiae; [7]
  Number of isolates with MIC 0.125 μg/mL: 11
  Number of isolates with MIC 0.25 μg/mL: 4
S. uberis; Streptococcus uberis, bacteriological broth, 15 Strep. uberis isolates tested, read-out: MIC50
  MIC50: 0.25 µg/mL (≈ 0.153 µM)
S. uberis; Streptococcus uberis, bacteriological broth, 15 Strep. uberis isolates tested, read-out: MIC90
  MIC90: 0.5 µg/mL (≈ 0.306 µM)
S. uberis; Streptococcus uberis, bacteriological broth, 15 Strep. uberis isolates tested, read-out: Maximum MIC
  MIC: 0.5 µg/mL (≈ 0.306 µM)
S. uberis; Streptococcus uberis, bacteriological broth, 15 Strep. uberis isolates tested, read-out: Minimum MIC
  MIC: 0.125 µg/mL (≈ 0.0766 µM)
S. uberis; [8]
  Number of isolates with MIC 0.125 μg/mL: 2
  Number of isolates with MIC 0.25 μg/mL: 10
  Number of isolates with MIC 0.5 μg/mL: 3
Truep. pyogenes; Trueperella pyogenes, bacteriological broth, 15 Truep. pyogenes isolates tested, read-out: MIC50
  MIC50: ≤ 0.063 µg/mL
Truep. pyogenes; Trueperella pyogenes, bacteriological broth, 15 Truep. pyogenes isolates tested, read-out: MIC90
  MIC90: ≤ 0.063 µg/mL
Truep. pyogenes; Trueperella pyogenes, bacteriological broth, 15 Truep. pyogenes isolates tested, read-out: Maximum MIC
  MIC: ≤ 0.063 µg/mL
Truep. pyogenes; Trueperella pyogenes, bacteriological broth, 15 Truep. pyogenes isolates tested, read-out: Minimum MIC
  MIC: ≤ 0.063 µg/mL
Truep. pyogenes; broth, of 15 Truep. pyogenes isolates
  Number of isolates with MIC ≤0.063 μg/mL: 15
S. aureus [2]
  MIC90 against S. aureus compared with MIC90 of penicillin G: identical
  Distribution of MIC values: isolates with MIC 0.125 μg/ml: 0
  Distribution of MIC values: isolates with MIC 0.25 μg/ml: 0
  Distribution of MIC values: isolates with MIC 0.5 μg/ml: 0
  Distribution of MIC values: isolates with MIC 1 μg/ml: 0
  Distribution of MIC values: isolates with MIC 2 μg/ml: 0
  Distribution of MIC values: isolates with MIC 4 μg/ml: 4
  Distribution of MIC values: isolates with MIC 8 μg/ml: 11
  Distribution of MIC values: isolates with MIC 16 μg/ml: 5
  Distribution of MIC values: isolates with MIC 32 μg/ml: 0
  Distribution of MIC values: isolates with MIC 64 μg/ml: 0
  Distribution of MIC values: isolates with MIC >64 μg/ml: 0
  Distribution of MIC values: isolates with MIC ≤0.063 μg/ml: 0
S. aureus [2]; Staphylococcus aureus, read-out: MIC90
  MIC90: 16 µg/mL (≈ 9.81 µM)
[3]
  Antimicrobial activity against mastitis-causing pathogens: Good antimicrobial activity
